Patent publication US10260089B2, “Compositions and methods for recognition of RNA using triple helical peptide nucleic acids” (The Research Foundation for the State University of New York, priority 2012, dated 2019)
Several values for one entry are separate records, joined by “and”; a condition that tells them apart may be missing. Equal entries are not always repeated. Ends that are not written are not given here.

Assays:
RNA hairpin HRP2 (A-U) [1] = assay: ITC binding of PNA and GPNA to RNA hairpin HRP2 (Example 3); conditions: for -ΔG / -ΔH / -ΔS: acetate pH 5.5
Description: (§1) Isothermal Titration calorimetry. In a typical ITC experiment, an RNA hairpin solution (0.95 mL, […]) in acetate buffer [100 mM sodium acetate and 1.0 mM EDTA (pH 5.5)] was titrated with a PNA solution (50×5 μL, […]) using a Nano ITC G2 (TA Instruments) calorimeter. For full experimental details and data, see the Supporting Information. The titration data were analyzed using NanoAnalyze (TA Instruments) using an independent model to obtain the fitting graph and thermodynamic binding data (Table 7).
To gain more insight into different binding modes, guanidine-modified variants of hexamer CTCTTC (PNA4) were prepared and studied their binding to HRP2. […] While there was very little dependence on the number of modifications in the D series (entries 7-9), in the L series (entries 10-12) the affinity appeared to decrease somewhat with an increasing number of guanidine modifications.

[2] = test system: ribosomal A-site model RNA hairpin HRP6; assay: ITC binding to bacterial ribosomal A-site model RNA hairpin HRP6 (Example 3); parameters: species or system Mycobacterium tuberculosis; conditions: sodium acetate buffer (pH 5.5)
[3] = test system: ribosomal A-site model RNA hairpin HRP5; assay: ITC binding to human ribosomal A-site model RNA hairpin HRP5 (Example 3); conditions: sodium acetate buffer (pH 5.5)
[4] = cited from earlier work
DNA version of HRP1 = assay: ITC binding of GPNA to a DNA version of HRP1 (Example 3); conditions: acetate pH 5.5
Description: as §1
Binding of D-GPNA1 to the HRP1 hairpin, consistent with, made of deoxynucleotides (DNA version of HRP1) was weaker by ˜1 order of magnitude (cf., entries 2 and 4). In contrast, the affinity of L-GPNA1 for either the RNA or DNA hairpin was practically the same (cf., entries 3 and 5). Under physiologically relevant conditions [37° C., in 2 mM MgCl2, 90 mM KCl, 10 mM NaCl, and 50 mM potassium phosphate (pH 7.4)], no binding of D-GPNA1 to HRP1 was observed. The sequence of PNA3 was symmetric and thus provided optimal binding for formation of both a parallel triple helix and an antiparallel duplex, as required for triplex invasion (FIGS. 12A-12C).

RNA hairpin HRP4 (U-A) = assay: ITC binding of PNA and GPNA to RNA hairpin HRP4 (Example 3); conditions: sodium acetate buffer (pH 5.5)
Description: as §1
(§2) Next the sequence selectivity of binding of GPNA1 to all four RNA hairpins having a variable central base pair [HRP1-HRP4 (FIGS. 6 and 10)] was checked.

RNA hairpin HRP3 (C-G) = assay: ITC binding of PNA and GPNA to RNA hairpin HRP3 (Example 3); conditions: sodium acetate buffer (pH 5.5)
Description: as §1, §2

RNA hairpin HRP1 (G-C) [5] = assay: ITC binding of PNA and GPNA to RNA hairpin HRP1 (Example 3); conditions: 37° C., 2 mM MgCl2, 90 mM KCl, 10 mM NaCl, 50 mM potassium phosphate (pH 7.4)
RNA hairpin HRP1 (G-C) [6] = assay: as above; conditions: for Ka: 100 mM sodium acetate and 1.0 mM EDTA (pH 5.5); for -ΔG / -ΔH / -ΔS: acetate pH 5.5
Description: as §1
The guanidine-modified PNA oligomers [GPNA (FIG. 10)] were made using the standard Fmoc synthesis protocols on the Expedite 8909 synthesizer and purified by reverse-phase high-performance liquid chromatography. […] To allow direct comparison, the same GPNA sequences were prepared (FIG. 10), like the PNA used in previous study of triple-helix formation with double-helical RNA. The binding of GPNA to RNA hairpin (HRP1) was studied using isothermal titration calorimetry [ITC (FIG. 11)]. […] Formation of the complex was further confirmed using circular dichroism (CD) spectroscopy. […] Addition of 4.5 equiv (conditions mimicking the end point of ITC titration) of D-GPNA1 and L-GPNA1 to HRP1 induced a decrease in the magnitude of the CD signal at 240-250 nm, which was clearly visible in the difference spectra. However, a significant increase around 280 nm was not observed. […] Overall, the CD spectra confirmed the formation of GPNA-RNA complexes.

RNA hairpin HRP2 (A-U) [7] = assay: ITC binding of PNA and GPNA to RNA hairpin HRP2 (Example 3); conditions: experiment of entry 13 repeated in acetate buffer at pH 7.3
[8] = 100 mM sodium acetate and 1.0 mM EDTA (pH 5.5)

| Molecule | Ka (RNA hairpin HRP2 (A-U) [1]; [8]) | -ΔG (RNA hairpin HRP2 (A-U) [1]) | -ΔH (RNA hairpin HRP2 (A-U) [1]) | -ΔS (RNA hairpin HRP2 (A-U) [1]) | Average association constants Ka, M. tuberculosis (HRP6) [2] | Average association constants Ka, H. Sapiens (HRP5) [3] | other results |
| --- | --- | --- | --- | --- | --- | --- | --- |
| NH2-CTL-ArgCTL-ArgTL-ArgC [L-GPNA4] | 500000 M⁻¹ | 7.8 kcal/mol | 61.6 kcal/mol | 181 eu |  |  |  |
| NH2-CTL-ArgCTTL-ArgC [L-GPNA3] | 800000 M⁻¹ | 8.0 kcal/mol | 58.8 kcal/mol | 170 eu |  |  |  |
| NH2-CTL-ArgGCTT [GPNA12] |  |  |  |  | 400000 M⁻¹ | 800000 M⁻¹ |  |
| NH2-CTD-ArgCTTD-ArgC [D-GPNA3] | 500000 M⁻¹ | 7.8 kcal/mol | 41.8 kcal/mol | 114 eu |  |  |  |
| NH2-CCTGCTT [PNA11] |  |  |  |  | 200000 M⁻¹ | 40000 M⁻¹ |  |
| Nc1cc[nH]c(=O)n1 [cytosine] |  |  |  |  |  |  | pKa [4]: ~4.5 |
| NH2-CCCTPexCTT [PNA14] |  |  |  |  | 2e+06 M⁻¹ | NB[b] (No binding; Ka < 10^3 M^−1.) |  |
| NH2-CTD-ArgTCTD-ArgC [D-GPNA6] | 5e+06 M⁻¹ | 9.1 kcal/mol | 13.4 kcal/mol | 14 eu |  |  |  |
| NH2-CTCTD-ArgTC [D-GPNA2] | 500000 M⁻¹ | 7.8 kcal/mol | 70.0 kcal/mol | 209 eu |  |  |  |
| NH2-CTGCTT [PNA12] |  |  |  |  | 200000 M⁻¹ | 60000 M⁻¹ |  |
| NH2CTL-ArgGCTL-ArgT [GPNA13] |  |  |  |  | 2.9e+06 M⁻¹ | 8.1e+06 M⁻¹ |  |
| NH2-CTL-ArgTL-ArgCTL-ArgC [L-GPNA7] | 3.8 ± 0.1 ×10^6 M^−1 | 8.9 ± 0.3 kcal/mol | 13.0 ± 7.3 kcal/mol | 14 ± 25 eu |  |  |  |
| NH2-CTD-ArgTD-ArgCTD-ArgC [D-GPNA7] | 0.4 ± 0.01 ×10^6 M^−1 | 7.6 ± 0.0 kcal/mol | 25.8 ± 3.7 kcal/mol | 61 ± 13 eu |  |  |  |
| NH2-CTD-ArgCCTD-ArgC [D-GPNA1] | 300000 M⁻¹ |  |  |  |  |  | -ΔG (DNA version of HRP1): 7.7 kcal/mol; -ΔH (DNA version of HRP1): 29.1 kcal/mol; -ΔS (DNA version of HRP1): 72 eu; Ka (DNA version of HRP1): 400000 M⁻¹; Average association constants Ka, HRP4 (U-A) (RNA hairpin HRP4 (U-A)): 1.3e+06 M⁻¹; Average association constants Ka, HRP3 (C-G) (RNA hairpin HRP3 (C-G)): 700000 M⁻¹; binding to HRP1 under physiologically relevant conditions (RNA hairpin HRP1 (G-C) [5]): no binding; Ka (RNA hairpin HRP1 (G-C) [6]): 4.6 ± 1.6 ×10^6 M^−1 and 4.6 ×10^6 M^−1; -ΔG (RNA hairpin HRP1 (G-C) [6]): 9.1 ± 0.2 kcal/mol; -ΔH (RNA hairpin HRP1 (G-C) [6]): 27.3 ± 2.5 kcal/mol; -ΔS (RNA hairpin HRP1 (G-C) [6]): 61 ± 9 eu |
| H-CCCTPCTT (cysteine pairing not given here) [PNA13] |  |  |  |  | 1.5e+06 M⁻¹ | NB[b] (No binding; Ka < 10^3 M^−1.) |  |
| NH2-CCCTGCTT [PNA10] |  |  |  |  | 1.2e+06 M⁻¹ | 400000 M⁻¹ |  |
| NH2-CTCTL-ArgTC [L-GPNA2] | 1.8e+06 M⁻¹ | 8.5 kcal/mol | 39.6 kcal/mol | 104 eu |  |  |  |
| NH2-CTD-ArgCTD-ArgTD-ArgC [D-GPNA4] | 600000 M⁻¹ | 7.9 kcal/mol | 22.9 kcal/mol | 50 eu |  |  |  |
| NH2-CTTD-ArgCTC [D-GPNA5] | 1.05e+07 M⁻¹ | 9.6 kcal/mol | 19.8 kcal/mol | 34 eu |  |  | binding to HRP2 in acetate buffer at pH 7.3 (RNA hairpin HRP2 (A-U) [7]): no binding; Ka (RNA hairpin HRP2 (A-U) [1]; pH 5.5, antiparallel GPNA): ~10^7 |
| NH2-CTL-ArgCCTL-ArgC [L-GPNA1] | 800000 M⁻¹ |  |  |  |  |  | -ΔG (DNA version of HRP1): 8.7 kcal/mol; -ΔH (DNA version of HRP1): 21.0 kcal/mol; -ΔS (DNA version of HRP1): 41 eu; Ka (DNA version of HRP1): 2.5e+06 M⁻¹; Average association constants Ka, HRP4 (U-A) (RNA hairpin HRP4 (U-A)): 400000 M⁻¹; Average association constants Ka, HRP3 (C-G) (RNA hairpin HRP3 (C-G)): 600000 M⁻¹; Ka (RNA hairpin HRP1 (G-C) [6]): 2.2 ± 1.6 ×10^6 M^−1 and 2.2 ×10^6 M^−1; -ΔG (RNA hairpin HRP1 (G-C) [6]): 8.6 ± 0.5 kcal/mol; -ΔH (RNA hairpin HRP1 (G-C) [6]): 24.2 ± 9.6 kcal/mol; -ΔS (RNA hairpin HRP1 (G-C) [6]): 53 ± 34 eu |
| NH2-CCCTL-ArgGCTL-ArgT [GPNA10] |  |  |  |  | 500000 M⁻¹ | 2.8e+06 M⁻¹ |  |
